The subject of one series is Klebsiella pneumoniae. Nature of the series: Antibacterial activity against wild-type Klebsiella pneumoniae ATCC 13883 assessed as inhibition of bacterial growth incubated for 18 hrs. Type of series: functional. Particulars: read-out: MIC100.
A short description of series [1]: Cytotoxicity against human HepG2 cells incubated for 40 hrs by celltiter-glo luminescent cell viability assay. Type of series: toxicity, cell-based. On the technique in general: ATP-based viability assays read luminescence as a measure of living cells.
The nature of series [2]: Hemolytic activity in human red blood cells at 400 ug/ml incubated for 45 mins by spectrophotometric analysis relative to control. Type of series: toxicity, cell-based, Erythrocyte. The settings on record: red blood cells (erythrocytes), at 400 µg/mL, read-out: Activity.
Another series concerns Escherichia coli. As to the kind of experiment: Antibacterial activity against wild-type Escherichia coli ATCC 25922 assessed as inhibition of bacterial growth incubated for 18 hrs. Particulars: read-out: MIC100. Type of series: functional.

Drawing on ChEMBL document CHEMBL5518181, “Studies of antibacterial activity (in vitro and in vivo) and mode of action for des-acyl tridecaptins (DATs)” (Eur J Med Chem, 2024), this text covers MIC, IC50 and hemolysis for 13 compounds.

The IC50 is the concentration at which inhibition is half-maximal. High values mean weaker potency, low ones greater potency.

The structures appear in SMILES notation. In brackets after ≈: the same amount, converted by molar mass.

For the compound `CC[C@H](C)[C@H](NC(=O)[C@H](CCC(=O)O)NC(=O)[C@H](Cc1ccccc1)NC(=O)[C@@H](CCN)NC(=O)[C@H](CCN)NC(=O)[C@H](CO)NC(=O)[C@@H](Cc1c[nH]c2ccccc12)NC(=O)[C@@H](CO)NC(=O)CNC(=O)[C@@H](CCN)NC(=O)[C@H](N)C(C)C)C(=O)N[C@@H](C(=O)N[C@@H](C)C(=O)O)[C@@H](C)CC`, the figures for the MIC in the series on Klebsiella pneumoniae and in the series on Escherichia coli were 16 µg/mL (≈ 11.4 µM) and 32 µg/mL (≈ 22.7 µM), respectively. For the same compound, the IC50 at 40 h in series [1] is more than 60 µg/mL. The hemolysis at 0.75 h, 400 ug/ml in series [2] came to 70.6%.
Taken in the same sequence, the figures for `CC[C@H](C)[C@@H](NC(=O)[C@@H](NC(=O)[C@H](CCC(=O)O)NC(=O)[C@H](Cc1ccccc1)NC(=O)[C@@H](CN)NC(=O)[C@H](CCN)NC(=O)[C@H](CO)NC(=O)[C@@H](Cc1c[nH]c2ccccc12)NC(=O)[C@@H](CO)NC(=O)CNC(=O)[C@@H](CCN)NC(=O)[C@H](NC(=O)[C@H](C)N)C(C)C)C(C)C)C(=O)N[C@@H](C)C(=O)O` were more than 64 µg/mL, more than 64 µg/mL, more than 170 µg/mL and 0%.
Take `CC[C@H](C)[C@@H](NC(=O)[C@@H](NC(=O)[C@H](CCC(=O)O)NC(=O)[C@H](Cc1ccccc1)NC(=O)[C@@H](CCN)NC(=O)[C@H](CCN)NC(=O)[C@H](CO)NC(=O)[C@@H](Cc1c[nH]c2ccccc12)NC(=O)[C@@H](CO)NC(=O)CNC(=O)[C@@H](C)NC(=O)[C@H](N)C(C)C)C(C)C)C(=O)N[C@@H](C)C(=O)O`: the MIC in the series on Klebsiella pneumoniae and in the series with Escherichia coli was more than 64 µg/mL in each case. This compound also gave an IC50 at 40 h in series [1] of more than 170 µg/mL. Also, the hemolysis at 0.75 h, 400 ug/ml in series [2] worked out at 0.1%.
On to `CC[C@H](C)[C@@H](NC(=O)[C@H](C)NC(=O)[C@H](CCC(=O)O)NC(=O)[C@H](Cc1ccccc1)NC(=O)[C@@H](CCN)NC(=O)[C@H](CCN)NC(=O)[C@H](CO)NC(=O)[C@@H](Cc1c[nH]c2ccccc12)NC(=O)[C@@H](CO)NC(=O)CNC(=O)[C@@H](CCN)NC(=O)[C@H](N)C(C)C)C(=O)N[C@@H](C)C(=O)O`, for which the MIC with Klebsiella pneumoniae was 64 µg/mL (≈ 46.8 µM); in the series on Escherichia coli, more than 64 µg/mL. 58 µg/mL (≈ 42.4 µM) corresponded to half-maximal inhibition in series [1] (IC50 at 40 h). Also, the hemolysis at 0.75 h, 400 ug/ml in series [2] came to 0.8%.
Taken in the same sequence, the figures for `CC[C@H](C)[C@@H](NC(=O)[C@@H](NC(=O)[C@H](CCC(=O)O)NC(=O)[C@H](Cc1ccccc1)NC(=O)[C@@H](CCN)NC(=O)[C@H](CCN)NC(=O)[C@H](CO)NC(=O)[C@@H](Cc1c[nH]c2ccccc12)NC(=O)[C@@H](CCN)NC(=O)CNC(=O)[C@@H](CCN)NC(=O)[C@H](N)C(C)C)C(C)C)C(=O)N[C@@H](C)C(=O)O` were more than 64 µg/mL, more than 64 µg/mL, more than 170 µg/mL and 0%.
`CC[C@H](C)[C@@H](NC(=O)[C@@H](NC(=O)[C@H](CCC(=O)O)NC(=O)[C@H](Cc1ccccc1)NC(=O)[C@@H](CCN)NC(=O)[C@H](CCN)NC(=O)[C@H](CO)NC(=O)[C@@H](Cc1c[nH]c2ccccc12)NC(=O)[C@@H](CO)NC(=O)CNC(=O)[C@@H](CN)NC(=O)[C@H](NC(=O)[C@H](C)N)C(C)C)C(C)C)C(=O)N[C@@H](C)C(=O)O`: the MIC in the series on Klebsiella pneumoniae and in the series on Escherichia coli was more than 64 µg/mL throughout. Moreover, the IC50 at 40 h in series [1] is more than 170 µg/mL. Further, the hemolysis at 0.75 h, 400 ug/ml in series [2] is 0%.
In the case of `CC[C@H](C)[C@@H](NC(=O)[C@@H](NC(=O)[C@H](CCC(=O)O)NC(=O)[C@H](Cc1ccccc1)NC(=O)[C@@H](CCN)NC(=O)[C@H](CCN)NC(=O)[C@H](CO)NC(=O)[C@@H](Cc1c[nH]c2ccccc12)NC(=O)[C@@H](CC(=O)O)NC(=O)CNC(=O)[C@@H](CCN)NC(=O)[C@H](N)C(C)C)C(C)C)C(=O)N[C@@H](C)C(=O)O`, the MIC in the series on Klebsiella pneumoniae and in the series on Escherichia coli was more than 64 µg/mL in each case. This compound yielded an IC50 at 40 h in series [1] of more than 170 µg/mL. Besides, the hemolysis at 0.75 h, 400 ug/ml in series [2] stood at 0%.
In the case of `CC[C@H](C)[C@@H](NC(=O)[C@H](C)NC(=O)[C@H](CCC(=O)O)NC(=O)[C@H](Cc1ccccc1)NC(=O)[C@@H](CCN)NC(=O)[C@H](CCN)NC(=O)[C@H](CO)NC(=O)[C@@H](Cc1c[nH]c2ccccc12)NC(=O)[C@@H](CO)NC(=O)CNC(=O)[C@@H](CCN)NC(=O)[C@H](NC(=O)[C@H](C)N)C(C)C)C(=O)N[C@@H](C)C(=O)O`, the MIC with Klebsiella pneumoniae and with Escherichia coli was 32 µg/mL (≈ 22.3 µM) throughout. For the same compound, half-maximal inhibition in series [1] (IC50 at 40 h) required 51 µg/mL (≈ 35.5 µM). Besides, the hemolysis at 0.75 h, 400 ug/ml in series [2] was found to be 5.5%.
Take `CC[C@H](C)[C@@H](NC(=O)[C@@H](NC(=O)[C@H](CCC(=O)O)NC(=O)[C@H](Cc1ccccc1)NC(=O)[C@@H](CCN)NC(=O)[C@H](CCN)NC(=O)[C@H](CO)NC(=O)[C@@H](Cc1c[nH]c2ccccc12)NC(=O)[C@@H](CO)NC(=O)CNC(=O)[C@@H](CCN)NC(=O)[C@H](NC(=O)C(F)(F)CN)C(C)C)C(C)C)C(=O)N[C@@H](C)C(=O)O`: the MIC in the series with Klebsiella pneumoniae and in the series on Escherichia coli was more than 64 µg/mL each time. In series [1], this compound returned an IC50 at 40 h of more than 170 µg/mL. Further, the hemolysis at 0.75 h, 400 ug/ml in series [2] stood at 0%.
Consider `CC[C@H](C)[C@@H](NC(=O)[C@@H](NC(=O)[C@H](CCC(=O)O)NC(=O)[C@H](Cc1ccccc1)NC(=O)[C@@H](CCN)NC(=O)[C@H](CCN)NC(=O)[C@H](CO)NC(=O)[C@@H](Cc1c[nH]c2ccccc12)NC(=O)[C@@H](CO)NC(=O)CNC(=O)[C@@H](CCN)NC(=O)[C@@H](C)NC(=O)[C@H](C)N)C(C)C)C(=O)N[C@@H](C)C(=O)O`, for which the MIC is 32 µg/mL (≈ 22.3 µM) in the series on Klebsiella pneumoniae and 64 µg/mL (≈ 44.5 µM) in the series with Escherichia coli. The compound further registered an IC50 at 40 h in series [1] of more than 170 µg/mL. Moreover, the hemolysis at 0.75 h, 400 ug/ml in series [2] is 1.3%.
For `CC[C@H](C)[C@@H](NC(=O)[C@@H](NC(=O)[C@H](CCC(=O)O)NC(=O)[C@H](Cc1ccccc1)NC(=O)[C@@H](CCN)NC(=O)[C@H](CCN)NC(=O)[C@H](CO)NC(=O)[C@@H](Cc1c[nH]c2ccccc12)NC(=O)[C@@H](C)NC(=O)CNC(=O)[C@@H](CCN)NC(=O)[C@H](N)C(C)C)C(C)C)C(=O)N[C@@H](C)C(=O)O`, the MIC in the series with Klebsiella pneumoniae was 64 µg/mL (≈ 46.4 µM); in the series with Escherichia coli, more than 64 µg/mL. The compound also had an IC50 at 40 h in series [1] of more than 170 µg/mL. Moreover, the hemolysis at 0.75 h, 400 ug/ml in series [2] was determined as 0%.
As for `CC[C@H](C)[C@@H](NC(=O)[C@@H](NC(=O)[C@H](CCC(=O)O)NC(=O)[C@H](Cc1ccccc1)NC(=O)[C@@H](CCN)NC(=O)[C@H](CCN)NC(=O)[C@H](CO)NC(=O)[C@@H](Cc1c[nH]c2ccccc12)NC(=O)[C@@H](CO)NC(=O)[C@H](CCN)NC(=O)[C@@H](CCN)NC(=O)[C@H](N)C(C)C)C(C)C)C(=O)N[C@@H](C)C(=O)O`, the MIC with Klebsiella pneumoniae came out at 64 µg/mL (≈ 44.5 µM); in the series on Escherichia coli, 32 µg/mL (≈ 22.3 µM). For the same compound, the IC50 at 40 h in series [1] was more than 170 µg/mL. The hemolysis at 0.75 h, 400 ug/ml in series [2] is 0.3%.
Turning to `CC[C@H](C)[C@@H](NC(=O)[C@@H](NC(=O)[C@H](CCC(=O)O)NC(=O)[C@H](Cc1ccccc1)NC(=O)[C@@H](CCN)NC(=O)[C@H](CCN)NC(=O)[C@H](CO)NC(=O)[C@@H](Cc1c[nH]c2ccccc12)NC(=O)[C@@H](CO)NC(=O)[C@H](CCCCN)NC(=O)[C@@H](CCN)NC(=O)[C@H](NC(=O)[C@H](C)N)C(C)C)C(C)C)C(=O)N[C@@H](C)C(=O)O`, the MIC in the series on Klebsiella pneumoniae is 32 µg/mL (≈ 20.8 µM); with Escherichia coli, 16 µg/mL (≈ 10.4 µM). In series [1], this compound displayed an IC50 at 40 h of more than 170 µg/mL. Besides, in series [2], the hemolysis at 0.75 h, 400 ug/ml came to 0.5%.
